US10131653B2, “Heterocyclic compound” (TAKEDA PHARMACEUTICAL COMPANY LIMITED, priority 2015, dated 2018)
Counter-ions that a name gives are not always drawn.

Experiments:
human OX1 receptor = target: T1, human OX1 receptor (Homo sapiens, UniProt O43613); test: Measurement of orexin receptor antagonistic activity (calcium fluorescence, FLIPRtetra); assay type: cell-based; conditions: 10 μM test compound, CHO cells expressing human OX1 receptor, OX-A 1 nM; for inhibition at 10 µM: CHO, read-out: Human Orexin1 receptor inhibition (at 10 μM)
T1 construct: expressed in transfected cells; host or cells: CHO cells
T1 sequence (O43613 1-425): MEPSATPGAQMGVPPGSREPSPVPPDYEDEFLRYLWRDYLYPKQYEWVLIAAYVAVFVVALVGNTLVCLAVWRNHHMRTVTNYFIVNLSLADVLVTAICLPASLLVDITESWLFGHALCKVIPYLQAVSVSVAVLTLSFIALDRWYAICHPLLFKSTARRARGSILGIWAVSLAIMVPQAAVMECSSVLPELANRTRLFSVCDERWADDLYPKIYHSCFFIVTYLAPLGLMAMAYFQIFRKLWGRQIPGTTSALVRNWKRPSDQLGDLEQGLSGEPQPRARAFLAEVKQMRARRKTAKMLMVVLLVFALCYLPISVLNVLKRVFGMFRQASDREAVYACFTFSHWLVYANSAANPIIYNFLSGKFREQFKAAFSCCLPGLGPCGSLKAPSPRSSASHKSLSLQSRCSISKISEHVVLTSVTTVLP
Procedure: (§1) Measurement of Orexin Receptor Antagonistic Activity
(§2) CHO cells forcibly expressing human OX1 receptor or human OX2 receptor were seeded in each well of 384 well black transparent bottom plate (BD Falcon) at 7,500 cells/well, and cultured for one day in a 5% CO2 incubator at 37° C. […] The plate was stood for 30 min in a 5% CO2 incubator at 37° C., and further stood at room temperature for 30 min. A test compound prepared by diluting with assay buffer B (HBSS, 20 mM HEPES, 0.1% BSA) was added at 10 μL/well, and then OX-A (OX1 receptor, final concentration; 1 nM) or OX-A (OX2 receptor, final concentration; 0.3 nM) was added at 10 μL/well, and the fluorescence value was measured by FLIPRtetra (Molecular Devices) every one sec for 2 min.

human OX2 receptor = target: T2, human OX2 receptor (Homo sapiens, UniProt O43614); test: as above; assay type: cell-based; conditions: 10 μM test compound, CHO cells expressing human OX2 receptor, OX-A 0.3 nM; for inhibition at 10 µM: CHO, read-out: Human Orexin2 receptor inhibition (at 10 μM)
T2 construct: expressed in transfected cells; host or cells: CHO cells
T2 sequence (O43614 1-444): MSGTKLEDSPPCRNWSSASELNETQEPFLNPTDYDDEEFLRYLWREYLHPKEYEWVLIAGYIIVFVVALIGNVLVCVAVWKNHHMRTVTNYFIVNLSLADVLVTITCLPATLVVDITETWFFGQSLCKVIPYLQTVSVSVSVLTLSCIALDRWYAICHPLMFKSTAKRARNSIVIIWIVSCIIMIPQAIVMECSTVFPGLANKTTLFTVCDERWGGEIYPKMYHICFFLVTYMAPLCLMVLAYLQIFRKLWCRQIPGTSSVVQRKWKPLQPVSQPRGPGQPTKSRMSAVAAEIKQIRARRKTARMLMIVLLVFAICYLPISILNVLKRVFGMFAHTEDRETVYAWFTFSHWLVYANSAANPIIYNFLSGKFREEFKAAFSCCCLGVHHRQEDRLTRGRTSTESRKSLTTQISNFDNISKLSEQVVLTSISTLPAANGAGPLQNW
Procedure: as §1, §2

Human Orexin1 receptor inhibition (at 10 μM) (human OX1 receptor) | Human Orexin2 receptor inhibition (at 10 μM) (human OX2 receptor) | inhibition at 10 µM (human OX1 receptor) | inhibition at 10 µM (human OX2 receptor) | Structure (SMILES)
16% | 99% |  |  | Cc1cc(N2CCN(C(=O)c3cc(Cl)ccc3-n3nccn3)CC(C)O2)nc(C)n1 (stereo in doubt) [Example 212, (5-chloro-2-(2H-1,2,3-triazol-2-yl)phenyl)((7R)-2-(2,6-dimethylpyrimidin-4-yl)-7-methyl-1,2,5-oxadiazepan-5-yl)methanone]
 |  | 87% | 100% | Cc1nc(N2CCN(C(=O)c3cc(Cl)ccc3-n3nccn3)C[C@H](C)O2)cc(C(F)(F)F)n1 [Example 3, (5-chloro-2-(2H-1,2,3-triazol-2-yl)phenyl)((7S)-7-methyl-2-(2-methyl-6-(trifluoromethyl)pyrimidin-4-yl)-1,2,5-oxadiazepan-5-yl)methanone]
 |  | 62% | 96% | Cc1ccc(-n2nccn2)c(C(=O)N2CCON(c3cc(C)nc(C)n3)CC2)c1 [Example 4, (2-(2,6-dimethylpyrimidin-4-yl)-1,2,5-oxadiazepan-5-yl)(5-methyl-2-(2H-1,2,3-triazol-2-yl)phenyl)methanone]
 |  | 101% | 99% | Cc1cc(N2C[C@H](C)N(C(=O)c3ccccc3-c3nccs3)[C@H](C)CO2)nc(C)n1 [Example 5, ((4S,6R)-2-(2,6-dimethylpyrimidin-4-yl)-4,6-dimethyl-1,2,5-oxadiazepan-5-yl)(2-(1,3-thiazol-2-yl)phenyl)methanone]
 |  | 88% | 96% | Cc1ccc(-n2nccn2)c(C(=O)N2CCN(c3cc(C)nc(C)n3)OC[C@H]2C)c1 [Example 6, ((6R)-2-(2,6-dimethylpyrimidin-4-yl)-6-methyl-1,2,5-oxadiazepan-5-yl)(5-methyl-2-(2H-1,2,3-triazol-2-yl)phenyl)methanone]
 |  | 91% | 74% | Cc1ccc(-n2nccn2)c(C(=O)N2CCON(c3ncc(C(F)(F)F)cn3)CC2)c1 [Example 9]
 |  | 93% | 94% | Cc1ccc(-n2nccn2)c(C(=O)N2CCON(c3ncc(C4CC4)cn3)CC2)c1 [Example 10, (2-(5-cyclopropylpyrimidin-2-yl)-1,2,5-oxadiazepan-5-yl)(5-methyl-2-(2H-1,2,3-triazol-2-yl)phenyl)methanone]
 |  | 101% | 93% | Cc1ccc(-n2nccn2)c(C(=O)N2CCON(c3nc(C)cc(-c4ccc(F)cc4)n3)CC2)c1 [Example 12, (2-(4-(4-fluorophenyl)-6-methylpyrimidin-2-yl)-1,2,5-oxadiazepan-5-yl)(5-methyl-2-(2H-1,2,3-triazol-2-yl)phenyl)methanone]
 |  | 23% | 91% | Cc1cc(N2CCN(C(=O)c3cc(F)ccc3-n3nccn3)CCO2)nc(C)n1 [Example 14, (2-(2,6-dimethylpyrimidin-4-yl)-1,2,5-oxadiazepan-5-yl)(5-fluoro-2-(2H-1,2,3-triazol-2-yl)phenyl)methanone]
 |  | 5% | 102% | Cc1cc(N2CCN(C(=O)c3cc(F)c(F)cc3-n3nccn3)CCO2)nc(C)n1 [Example 15, (4,5-difluoro-2-(2H-1,2,3-triazol-2-yl)phenyl) (2-(2,6-dimethylpyrimidin-4-yl)-1,2,5-oxadiazepan-5-yl)methanone]
 |  | 21% | 98% | Cc1cc(N2CCN(C(=O)c3c(F)cccc3-n3nccn3)CCO2)nc(C)n1 [Example 16, (2-(2,6-dimethylpyrimidin-4-yl)-1,2,5-oxadiazepan-5-yl) (2-fluoro-6-(2H-1,2,3-triazol-2-yl)phenyl)methanone hydrochloride]
 |  | 41% | 102% | Cc1cc(N2CCN(C(=O)c3ccccc3-c3ncc(F)s3)CCO2)nc(C)n1 [Example 17, (2-(2,6-dimethylpyrimidin-4-yl)-1,2,5-oxadiazepan-5-yl) (2-(5-fluoro-1,3-thiazol-2-yl)phenyl)methanone]
 |  | 36% | 100% | Cc1cc(N2CCN(C(=O)c3ccccc3-c3csc(C)n3)CCO2)nc(C)n1 [Example 19, (2-(2,6-dimethylpyrimidin-4-yl)-1,2,5-oxadiazepan-5-yl) (2-(2-methyl-1,3-thiazol-4-yl)phenyl)methanone]
 |  | 25% | 101% | Cc1cc(N2CCN(C(=O)c3ccccc3-n3nccn3)CCO2)nc(C)n1 [Example 20, (2-(2,6-dimethylpyrimidin-4-yl)-1,2,5-oxadiazepan-5-yl) (2-(2H-1,2,3-triazol-2-yl)phenyl)methanone]
 |  | 19% | 99% | Cc1cc(N2CCN(C(=O)c3ccccc3C3CCC3)CCO2)nc(C)n1 [Example 21, (2-cyclobutylphenyl) (2-(2,6-dimethylpyrimidin-4-yl)-1,2,5-oxadiazepan-5-yl)methanone]
 |  | 54% | 99% | Cc1cc(N2CCN(C(=O)c3cc(Cl)ccc3C3CCC3)CCO2)nc(C)n1 [Example 22, (5-chloro-2-cyclobutylphenyl) (2-(2,6-dimethylpyrimidin-4-yl)-1,2,5-oxadiazepan-5-yl)methanone]
 |  | 88% | 101% | Cc1cc(N2CCN(C(=O)c3ccccc3-c3cccs3)CCO2)nc(C)n1 [Example 23, (2-(2,6-dimethylpyrimidin-4-yl)-1,2,5-oxadiazepan-5-yl) (2-(2-thienyl)phenyl)methanone hydrochloride]
 |  | 13% | 99% | Cc1cc(N2CCN(C(=O)c3ccccc3-c3nc(C)no3)CCO2)nc(C)n1 [Example 24, (2-(2,6-dimethyl-pyrimidin-4-yl)-1,2,5-oxadiazepan-5-yl) (2-(3-methyl-1,2,4-oxadiazol-5-yl)phenyl) methanone]
 |  | 61% | 98% | Cc1cc(N2CCN(C(=O)c3cc(Cl)ccc3-n3nccn3)CCO2)nc(C)n1 [Example 25, (5-chloro-2-(2H-1,2,3-triazol-2-yl)phenyl) (2-(2,6-dimethyl-pyrimidin-4-yl)-1,2,5-oxadiazepan-5-yl)methanone]
 |  | 83% | 100% | Cc1cc(N2CCN(C(=O)c3cc(Br)ccc3-n3nccn3)CCO2)nc(C)n1 [Example 26, (5-bromo-2-(2H-1,2,3-triazol-2-yl)phenyl) (2-(2,6-dimethyl-pyrimidin-4-yl)-1,2,5-oxadiazepan-5-yl)methanone]
 |  | 45% | 102% | Cc1cc(N2CCN(C(=O)c3cc(F)ccc3-c3ncccn3)CCO2)nc(C)n1 [Example 27, (2-(2,6-dimethyl-pyrimidin-4-yl)-1,2,5-oxadiazepan-5-yl) (5-fluoro-2-(pyrimidin-2-yl)phenyl) methanone]
 |  | 23% | 74% | Cc1cc(N2CCN(C(=O)c3cc(F)ccc3-n3cccn3)CCO2)nc(C)n1 [Example 28, (2-(2,6-dimethyl-pyrimidin-4-yl)-1,2,5-oxadiazepan-5-yl) (5-fluoro-2-(1H-pyrazol-1-yl)phenyl) methanone]
 |  | 88% | 100% | Cc1cc(N2CCN(C(=O)c3ccccc3-c3nccs3)CCO2)nc(C)n1 [Example 29, (2-(2,6-dimethyl-pyrimidin-4-yl)-1,2,5-oxadiazepan-5-yl) (2-(1,3-thiazol-2-yl)phenyl) methanone]
 |  | 1% | 101% | Cc1cc(N2CCN(C(=O)c3ccccc3-n3cccn3)CCO2)nc(C)n1 [Example 30, (2-(2,6-dimethyl-pyrimidin-4-yl)-1,2,5-oxadiazepan-5-yl) (2-(1H-pyrazol-1-yl)phenyl) methanone]
 |  |  | 4% | Cc1cc(C)nc(N2CCN(C(=O)c3ccc(Cl)cc3)CCO2)n1 [Example 40, (4-chlorophenyl)(2-(4,6-dimethylpyrimidin-2-yl)-1,2,5-oxadiazepan-5-yl)methanone]
